Measurements: paper PMC9968088, “Identification and Characterization of Three New Antimicrobial Peptides from the Marine Mollusk Nerita versicolor (Gmelin, 1791)” (International Journal of Molecular Sciences, 2023)
Ends that are not written are not given here.

Columns and labels:
Conditions in all cases: 24 h
Pseudomonas aeruginosa = format: cell-based
Description: The OD 600 nm of an overnight culture of Pseudomonas aeruginosa was determined and adjusted to 0.1 in Mueller–Hinton broth and, afterwards, diluted 1:4. […] After a 24 h incubation at 37 °C and a 5% CO2 atmosphere, OD 600 nm was determined using a Tecan microplate reader M infinite 200. All tests were performed in triplicate.

C. auris biofilm = format: cell-based, Candida auris
Description: (§1) Biofilms were basically formed and analyzed as described previously [31, 32, 33]. In brief, 2.5 × 10^3 yeast cells were seeded in 200 µL RPMI-1640 medium supplemented with L-glutamine in flat-bottomed, 96-well polystyrene microtiter plates (Sarstedt AG & Co. KG, Nümbrecht, Germany) and incubated at 37 °C without agitation for 24 h. The effect of the peptides on the biofilm formation was tested at different concentrations. […] Planktonic cells were removed with the supernatant, and the mature biofilms were washed twice with 200 µL water. Subsequently, the biofilms were stained with 200 µL of a 0.1% (w/v) crystal violet solution for 15 min. The supernatant was removed, and the biofilms were washed twice with 200 µL water to eliminate excess crystal violet. The stained biofilms were air dried for 24 h at 25 °C and finally destained using 200 µL of 30% acetic acid (15 min, 25 °C). The supernatant was transferred to a fresh 96-well plate, and the absorbance at 560 nm was measured using a Tecan infinite M200 microplate reader to quantify the biofilm biomass. The curve was fitted with a nonlinear regression with the dose-response nonlinear Hill equation.

C. parapsilosis biofilm = format: cell-based, Candida parapsilosis
Description: as §1

C. parapsilosis = format: cell-based, Candida parapsilosis
Description: (§2) The antifungal activity was determined according to the “Clinical and Laboratory Standards Institute” guidelines M27-A3 broth microdilution assay with modifications (turbidimetric detection) [29, 31]. Based on the cell density measurements, the minimal inhibitory concentration (MIC) was derived from a Lambert–Pearson plot [32].

C. albicans biofilm = format: cell-based, Candida albicans
Description: as §1

C. auris = format: cell-based, Candida auris
Description: as §2

C. albicans = format: cell-based, Candida albicans
Description: as §2

KKKPTKK [Nv-p3]
MIC (Pseudomonas aeruginosa): >100 µg/mL
Antibiofilm Activity IC50 (C. auris biofilm): 57.5 µg/mL
Antibiofilm Activity IC50 (C. parapsilosis biofilm): 84.4 µg/mL
Antifungal Activity MIC (C. parapsilosis): ˃100 µg/mL
Antibiofilm Activity IC50 (C. albicans biofilm): 57.5 µg/mL
Antifungal Activity MIC (C. auris): ˃100 µg/mL
Antifungal Activity MIC (C. albicans): ˃100 µg/mL
